In ChEMBL document CHEMBL1201862, “PubChem BioAssay data set” (2004):
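Assay format: 96-well plates, 48-hour exposure. GI50 marks 50% less growth.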 Activity calls are given as the source filed them. No stated cut-off is given here; in the data, active = GI50 up to about 1.1 µM and inactive = higher.

Key:
Experiment in all cases: growth of human tumour cells (NCI), 48 h
786-0 = test system: 786-0
A498 = test system: A498
ACHN = test system: ACHN
BT-549 = test system: BT-549
EKVX = test system: EKVX
HCT-116 = test system: HCT-116
HOP-62 = test system: HOP-62
HOP-92 = test system: HOP-92
Hs-578T = test system: Hs-578T
LOX IMVI = test system: LOX IMVI
MCF7 = test system: MCF7
NCI-H23 = test system: NCI-H23
OVCAR-3 = test system: OVCAR-3
OVCAR-4 = test system: OVCAR-4
RXF 393 = test system: RXF 393
SF-268 = test system: SF-268
SK-OV-3 = test system: SK-OV-3
SR = test system: SR
SW-620 = test system: SW-620
U-251 = test system: U-251

CC(C)Oc1cccc(N2C(CCc3c[nH]c4ccc(Br)cc34)=NS(=O)(=O)c3cnccc32)c1
GI50 (786-0): 45 µM (inactive)
GI50 (A498): 35.4 µM (inactive)
GI50 (ACHN): 28.7 µM (inactive)
GI50 (BT-549): 57.4 µM (inactive)
GI50 (EKVX): 29.2 µM (inactive)
GI50 (HCT-116): 20.3 µM (inactive)
GI50 (HOP-62): 94 µM (inactive)
GI50 (HOP-92): 17.5 µM (inactive)
GI50 (Hs-578T): 64.6 µM (inactive)
GI50 (LOX IMVI): 59.7 µM (inactive)
GI50 (MCF7): 21.5 µM (inactive)
GI50 (NCI-H23): 61.9 µM (inactive)
GI50 (OVCAR-3): 51.3 µM (inactive)
GI50 (OVCAR-4): 27.5 µM (inactive)
GI50 (RXF 393): 59.8 µM (inactive)
GI50 (SF-268): 69.8 µM (inactive)
GI50 (SK-OV-3): 36.8 µM (inactive)
GI50 (SR): 35.3 µM (inactive)
GI50 (SW-620): 72.3 µM (inactive)
GI50 (U-251): 64.6 µM (inactive)

CCOC(=O)C1=C(C)NC(C)=C(C(=O)OCCNC(=O)c2ccc(N=[N+]=[N-])cc2)C1c1ccccc1C(F)(F)F (stereo not given) [AZIDOPINE]
GI50 (786-0): 13.3 µM (inactive)
GI50 (A498): > 10 µM (inactive)
GI50 (ACHN): 7.64 µM (inactive)
GI50 (BT-549): 13.9 µM (inactive)
GI50 (EKVX): 10.7 µM (inactive)
GI50 (HCT-116): 9.73 µM (inactive)
GI50 (HOP-62): > 21.5 µM (inactive)
GI50 (HOP-92): 2.01 µM (inactive)
GI50 (Hs-578T): 12.7 µM (inactive)
GI50 (LOX IMVI): 10.7 µM (inactive)
GI50 (MCF7): 6.43 µM (inactive)
GI50 (NCI-H23): 11.3 µM (inactive)
GI50 (OVCAR-3): 9.06 µM (inactive)
GI50 (OVCAR-4): 12.2 µM (inactive)
GI50 (RXF 393): 9.57 µM (inactive)
GI50 (SF-268): 10.3 µM (inactive)
GI50 (SK-OV-3): 13.3 µM (inactive)
GI50 (SR): 4.44 µM (inactive)
GI50 (SW-620): 15.3 µM (inactive)
GI50 (U-251): 10.9 µM (inactive)

CCOC(=O)C(NC(=O)CC(C)C)(N1CCN(c2cc3c(cc2F)c(=O)c(C(=O)O)cn3C2CC2)CC1)C(F)(F)F (stereo not given)
GI50 (786-0): 29.5 µM (inactive)
GI50 (A498): 1.73 µM (inactive)
GI50 (ACHN): 12.5 µM (inactive)
GI50 (BT-549): 16.3 µM (inactive)
GI50 (EKVX): 23.4 µM (inactive)
GI50 (HCT-116): 20.4 µM (inactive)
GI50 (HOP-62): 36.6 µM (inactive)
GI50 (HOP-92): 9.57 µM (inactive)
GI50 (Hs-578T): 21.8 µM (inactive)
GI50 (LOX IMVI): 15.8 µM (inactive)
GI50 (MCF7): 15.6 µM (inactive)
GI50 (NCI-H23): 7.46 µM (inactive)
GI50 (OVCAR-3): 14.7 µM (inactive)
GI50 (OVCAR-4): 20.8 µM (inactive)
GI50 (RXF 393): 17.2 µM (inactive)
GI50 (SF-268): 11.1 µM (inactive)
GI50 (SK-OV-3): 24 µM (inactive)
GI50 (SR): 11.6 µM (inactive)
GI50 (SW-620): 19.6 µM (inactive)
GI50 (U-251): 14.7 µM (inactive)

C=CCC(C(=O)O)c1ccccc1 (stereo not given)
GI50 (786-0): > 100 µM (inactive)
GI50 (A498): > 100 µM (inactive)
GI50 (ACHN): > 100 µM (inactive)
GI50 (BT-549): > 100 µM (inactive)
GI50 (EKVX): > 100 µM (inactive)
GI50 (HCT-116): > 100 µM (inactive)
GI50 (HOP-62): > 100 µM (inactive)
GI50 (HOP-92): > 100 µM (inactive)
GI50 (Hs-578T): > 100 µM (inactive)
GI50 (LOX IMVI): > 100 µM (inactive)
GI50 (MCF7): > 100 µM (inactive)
GI50 (NCI-H23): > 100 µM (inactive)
GI50 (OVCAR-3): > 100 µM (inactive)
GI50 (OVCAR-4): > 100 µM (inactive)
GI50 (RXF 393): > 100 µM (inactive)
GI50 (SF-268): > 100 µM (inactive)
GI50 (SK-OV-3): > 100 µM (inactive)
GI50 (SR): > 100 µM (inactive)
GI50 (SW-620): > 100 µM (inactive)
GI50 (U-251): > 100 µM (inactive)

C=C1CCC2C(C)(CO)C(O)CCC2(C)C1C/C=C1\C(=O)OCC1O (stereo not given)
GI50 (786-0): 5.4 µM (inactive)
GI50 (A498): 32.7 µM (inactive)
GI50 (ACHN): 29 µM (inactive)
GI50 (BT-549): 7.53 µM (inactive)
GI50 (EKVX): 29.3 µM (inactive)
GI50 (HCT-116): 14.7 µM (inactive)
GI50 (HOP-62): 28.2 µM (inactive)
GI50 (HOP-92): 27.8 µM (inactive)
GI50 (Hs-578T): 36.6 µM (inactive)
GI50 (LOX IMVI): 12.6 µM (inactive)
GI50 (MCF7): 15.7 µM (inactive)
GI50 (NCI-H23): 21.6 µM (inactive)
GI50 (OVCAR-3): 9.4 µM (inactive)
GI50 (OVCAR-4): 11.1 µM (inactive)
GI50 (RXF 393): 18.7 µM (inactive)
GI50 (SF-268): 31.1 µM (inactive)
GI50 (SK-OV-3): 24 µM (inactive)
GI50 (SR): 1.01 µM (active)
GI50 (SW-620): 9.71 µM (inactive)
GI50 (U-251): 11.1 µM (inactive)
